Entries after “also recorded” stand apart in the source; their conditions may differ.

Experiment [1] concerns the target T1, GST-BRCA1 tandem BRCT domains interaction with phosphoproteins (Homo sapiens, UniProt P38398).
T1 construct: 15 μM GST-BRCA1 BRCT domains (residues 1634-1863); made in house; host or cells: E. coli DH5a
In words: GST-BRCA1 tandem BRCT pull-down of DNA damage-induced phosphoproteins from irradiated U2OS cells. It counts as binding. On the procedure:
(§1) U2OS cells were either treated with 10 Gy of ionizing radiation or mock irradiated and allowed to recover for 30-120 minutes. Cells were subsequently lysed in 50 mM Tris/HCl (pH7.6), 150 mM NaCl, 1.0% NP-40, 5 mM EDTA, 2 mM DTT, 8 μg/mL pepstatin, 8 μg/mL aprotinin, 8 μg/mL leupeptin, 2 mM Na3VO4, 10 mM NaF, 1 μM microcystin. The lysates (0.5-2 mg) were incubated with 20 μL glutathione beads containing 10-20 μg of GST-PTIP BRCT domains (residues 550-757), GST-BRCA1 BRCT domains (residues 1634-1863), or GST for 120 minutes at 4° C. Beads were washed three times with lysis buffer. Precipitated proteins were eluted in sample buffer and detected by blotting with anti-ATM/ATR substrate (pSer/pThr)Gln antibody (CELL SIGNALING TECHNOLOGY, Inc Beverly, Mass.), polyclonal anti-53BP1 (ONCOGENE […] PRODUCTS, San Diego, Calif. 92121), or monoclonal anti-HA (COVANCE Inc, Princeton, N.J.). For peptide competition experiments, GST-PTIP BRCT domains or GST-BRCA1 BRCT domains were immobilized on glutathionine beads and preincubated with 350 μM of BRCTtide-optimal, 7pT, 7T, pSQ-library, SQ-library, or pTP-library for 1 hour at 4° C. and washed three times with lysis buffer.

For experiment [2], the system named is GST-PTIP tandem BRCT domains interaction with 53BP1. In words: GST-PTIP tandem BRCT pull-down of 53BP1 from irradiated U2OS cells. Conditions: 25 mM caffeine prior to irradiation, U2OS. It counts as binding, human. On the procedure: as §1
The target of experiment [3] is T2, GST-PTIP tandem BRCT domains interaction with 53BP1 (Homo sapiens, UniProt Q6ZW49).
T2 construct: 10-20 μg of GST-PTIP BRCT domains (residues 550-757); made in house; host or cells: E. coli DH5a (GST-PTIP BRCT); 53BP1 endogenous from U2OS lysate
T2 sequence (Q6ZW49 862-1069): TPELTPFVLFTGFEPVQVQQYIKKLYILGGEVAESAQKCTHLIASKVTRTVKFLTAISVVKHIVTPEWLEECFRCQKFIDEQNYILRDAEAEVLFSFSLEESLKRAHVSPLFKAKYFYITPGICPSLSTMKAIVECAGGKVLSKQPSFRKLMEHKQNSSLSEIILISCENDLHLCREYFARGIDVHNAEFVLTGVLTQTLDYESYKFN
Described as above. It counts as binding. The conditions noted are these: 350 μM peptide or library, 1 hour at 4° C., IR treated U2OS. Here is the method:
as §1

In experiment [4] the target is T3, GST-BRCA1 BRCT domains (residues 1634-1863) (Homo sapiens, UniProt P38398).
T3 construct: 15 μM GST-BRCA1 BRCT domains (residues 1634-1863); made in house; host or cells: E. coli DH5a
T3 sequence (P38398 1634-1863): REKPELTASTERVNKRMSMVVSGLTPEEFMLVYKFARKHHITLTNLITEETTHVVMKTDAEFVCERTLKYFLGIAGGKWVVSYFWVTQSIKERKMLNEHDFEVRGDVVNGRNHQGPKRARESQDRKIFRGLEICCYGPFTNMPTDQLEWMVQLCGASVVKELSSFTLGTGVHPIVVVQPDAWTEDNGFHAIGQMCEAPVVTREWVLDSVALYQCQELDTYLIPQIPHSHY
Description: Isothermal titration calorimetry of peptides with BRCA1 tandem BRCT domains. Type of experiment: binding. The conditions noted are these: BRCA1; N.D.B = no detectable binding by ITC, tandem BRCT domain concentration of at least 150 μM. The source says:
(§2) For deletion mapping of the PTIP and BRCA1 BRCT phospho-binding region and for expression of MDC 1, 53BP1 and Rad9 (FIG. 17-18), fragments were generated by PCR for in vitro transcription/translation and cloned into a pcDNA3.1 expression vector (Invitrogen, San Diego, Calif.). For production of recombinant GST-PTIP BRCT domains and GSTBRCA1 BRCT domains, residues 550-757 of PTIP and residues 1634-1863 of BRCA1 were ligated into the EcoRI and NotI sites of pGEX-4T1 (Pharmacia, Peapack, N.J.) and subsequently transformed into DH5a E. Coli. Protein induction occurred at 37° C. for 4 hours or at 25° C. for 16 hours in the presence of 0.4 mM IPTG. For peptide filter blot analysis and measurements of peptide binding affinity by ITC, GSTPTIP BRCT domains (residues 550-757) and GST-BRCA1 BRCT domains (residues 1634-1863) were isolated from bacterial lysates using glutathione agarose, eluted with 40 mM glutathione, and dialyzed into 50 mM Tris/HCl (pH 8.1), 300 mM NaCl. The GFP-PTIP constructs FL (residues 1-757), !BRCT (residues 1-550), or (BRCT)2 (residues 550-757) were cloned into the EcoRI and SalI sites of the pEGFP-C2 (BD Biosciences Clontech Franklin Lakes, N.J.) expression vector.
(§3) Peptides were synthesized by solid phase technique with three C-terminal lysines to enhance solubility. The peptides were then purified by reverse phase HPLC following deprotection and confirmed by MALDI-TOF mass spectrometry. Calorimetry measurements were performed using a VP-ITC microcalorimeter (MicroCal Inc., Studio City, Calif.). Experiments involved serial 10 μL injections of peptide solutions (20 μM-150 μM) into a sample cell containing 15 μM GST-PTIP BRCT domains (residues 550-757) or 15 μM GST-BRCA1 BRCT domains (residues 1634-1863) in 50 mM Tris/HCl (pH 8.1), 300 mM NaCl. Twenty injections were performed with 240 second intervals between injections and a reference power of 25 μCal/s. Binding isotherms were plotted and analyzed using ORIGIN Software (MicroCal Inc. Studio City, Calif.).
For orientation: Isothermal titration calorimetry measures the heat released or taken up as one component is titrated into another.

Experiment [5] has as its target T4, GST-PTIP BRCT domains (residues 550-757) (Homo sapiens, UniProt Q6ZW49).
T4 construct: 15 μM GST-PTIP BRCT domains (residues 550-757); made in house; host or cells: E. coli DH5a
In words: Isothermal titration calorimetry of peptides with PTIP tandem BRCT domains. It counts as binding. Conditions: PTIP; N.D.B = no detectable binding by ITC, tandem BRCT domain concentration of at least 150 μM.
Source text: as §2, §3

T1 sequence (P38398 1634-1863): as above
T4 sequence (Q6ZW49 862-1069): as the sequence (Q6ZW49 862-1069) above

Take `Cn1c(=O)c2c(ncn2C)n(C)c1=O` [caffeine, reference compound]: the “effect of caffeine pre-treatment of cells on BRCA1 BRCT binding to (pSer or pThr)-Gln-containing proteins” value in experiment [1] (caffeine prior to γ-irradiation, U2OS) is reported as “largely eliminated”. In experiment [2], the “effect of caffeine treatment of cells on PTIP BRCT interaction with 53BP1” value is listed as “disrupted the interaction; also recorded: eliminated”.
With GAAYDITQVFPFAKKK [BRCTtide-7T], in experiment [1] (350 μM peptide or library, U2OS lysates after 10 Gy), the “effect of pre-incubation with peptide/library on BRCA1 BRCT binding to (pSer or pThr)-Gln-containing proteins” value is reported as “not”. Further, the “effect of bead pre-incubation with peptide/library on PTIP BRCT interaction with 53BP1” value was “not” in experiment [3] and “not eliminated” in experiment [3] (listed as non-phosphorylated counterpart). Besides, the “Kd (N.D.B.)” value in experiment [4] and in experiment [5] was “N.D.B” in each case.

The values above are taken from patent US20110104713A1, “PRODUCTS AND PROCESSES FOR MODULATING PEPTIDE-PEPTIDE BINDING DOMAIN INTERACTIONS” (priority 2002, published 2011).
